One assay deals with E. coli (M.R.C; 59). Kind of assay: growth and polyamine content of E. coli cultures. The format is cell-based. The note with it: compound by itself.
In a further assay the target is T1, P. aeruginosa ODC (Pseudomonas aeruginosa, UniProt Q9HVQ3).
T1 construct: 14CO2 release from ornithine
T1 sequence (Q9HVQ3 1-387): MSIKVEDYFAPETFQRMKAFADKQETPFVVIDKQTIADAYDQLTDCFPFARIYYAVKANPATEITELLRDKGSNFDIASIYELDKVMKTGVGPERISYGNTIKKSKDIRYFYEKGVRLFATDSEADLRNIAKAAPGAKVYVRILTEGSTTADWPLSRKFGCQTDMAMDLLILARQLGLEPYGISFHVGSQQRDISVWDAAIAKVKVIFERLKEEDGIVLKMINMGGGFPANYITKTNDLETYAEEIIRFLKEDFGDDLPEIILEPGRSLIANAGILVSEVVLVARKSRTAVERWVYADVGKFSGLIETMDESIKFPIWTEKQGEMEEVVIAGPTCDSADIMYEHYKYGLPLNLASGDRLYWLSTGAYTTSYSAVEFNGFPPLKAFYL
Kind of assay: time-dependent inhibition of bacterial ODC (in vitro), P. aeruginosa. Type of assay: biochemical. As to the method:
2-Fluoromethyl-2,5-diaminopentanoic acid (MFMO) was tested for in vitro inhibition of ornithine decarboxylase from Escherichia coli and from Pseudomonas aeruginosa according to the procedure described as follows:
Escherichia coli (M.R.C. 59) and Pseudomonas aeruginosa (A.T.C.C. 9027) were grown as described by Kallio et al., Biochem. J., 200, 69 (1981) in minimal medium [Davis et al., J. Bacteriol., 60, 17 (1950)] at 37° C. Cells were harvested by centrifugation (10 minutes at 10,000 g) and washed once with phosphate-buffered saline, pH 7.2 (0.125M NaCl, 10 mM Na2 HPO4, and 3 mM KH2 PO4). The cell pellet was suspended in 10 mM Tris/HCl (pH 7.5) containing 1 mM dithiothreitol and 0.1 mM EDTA and disrupted by sonication with a Branson Cell Disruptor 350 (5×30 sec, setting 3). Cell debris was removed by centrifugation at 25,000 g for 30 minutes and the supernatant (approximately 16 mg protein/ml), used for the measurement of ornithine decarboxylase, was stored frozen at -20° C. without appreciable loss of activity.
Ornithine decarboxylase activity was measured by the release of ^14 Co2. Assays contained 100 mM tris/HCl (pH 8.25 for E. coli and pH 7.5 for P. aeruginosa), 0.04 mM pyridoxal phosphate, 1mM dithiotheritol, 10 mM L-ornithine, 2.5 μCi D,L-[1-^14 C]ornithine and 80-120 μg bacterial protein in a total volume of 1 ml. […]
Time dependent irreversible inhibition of ornithine decarboxylase was determined according to the method of Kallio et al., Biochem. J., 200, 69 (1981). […] At selected times, 20 μl aliquots of the enzyme incubate were removed and transferred to the reaction flasks in which ODC activity was determined. […] The flasks were kept on ice until all time points were taken and then D,L-[1-^14 C]-ornithine was added and ODC activity was determined at 37° C. […]
Kinetic parameters for the inhibition of ODC were determined as described by Kitz, J. Biol. Chem., 237, 3245 (1962) as modified by Jung et al., Biochem. Biophys. […]

Consider `NCCCC(N)(CF)C(=O)O` (stereo not shown) [MFMO, 2-Fluoromethyl-2,5-diaminopentanoic acid], for which the “effect on cell growth” value in the assay with E. coli (M.R.C; 59) was “no effect”. In addition, at P. aeruginosa ODC (P. aeruginosa ODC, concentration giving half-maximal rate of inhibition, 20° C., pH 7.5), the Ki stood at 300 µM. At P. aeruginosa ODC (P. aeruginosa ODC, half-life at infinite concentrations), this compound came in with a T1/2 of 12 min. Also, the “inhibition of ODC of P. aeruginosa in vitro” value against P. aeruginosa ODC (in vitro, in words) is reported as “inhibit”.
